According to ChEMBL document CHEMBL3991601, “The target landscape of clinical kinase drugs” (Science, 2017):
Calls of active or inactive are those of the source. For most assays here, no stated cut-off is given here; in the data, actives have a measured Kd and inactives only a lower limit.

Legend:
Activin receptor type-2B = Activin receptor type-2B (Homo sapiens, UniProt Q13705)
Ephrin type-B receptor 2 = biological target: T1, Ephrin type-B receptor 2 (Homo sapiens, UniProt P29323)
T1 sequence (P29323 whole entry): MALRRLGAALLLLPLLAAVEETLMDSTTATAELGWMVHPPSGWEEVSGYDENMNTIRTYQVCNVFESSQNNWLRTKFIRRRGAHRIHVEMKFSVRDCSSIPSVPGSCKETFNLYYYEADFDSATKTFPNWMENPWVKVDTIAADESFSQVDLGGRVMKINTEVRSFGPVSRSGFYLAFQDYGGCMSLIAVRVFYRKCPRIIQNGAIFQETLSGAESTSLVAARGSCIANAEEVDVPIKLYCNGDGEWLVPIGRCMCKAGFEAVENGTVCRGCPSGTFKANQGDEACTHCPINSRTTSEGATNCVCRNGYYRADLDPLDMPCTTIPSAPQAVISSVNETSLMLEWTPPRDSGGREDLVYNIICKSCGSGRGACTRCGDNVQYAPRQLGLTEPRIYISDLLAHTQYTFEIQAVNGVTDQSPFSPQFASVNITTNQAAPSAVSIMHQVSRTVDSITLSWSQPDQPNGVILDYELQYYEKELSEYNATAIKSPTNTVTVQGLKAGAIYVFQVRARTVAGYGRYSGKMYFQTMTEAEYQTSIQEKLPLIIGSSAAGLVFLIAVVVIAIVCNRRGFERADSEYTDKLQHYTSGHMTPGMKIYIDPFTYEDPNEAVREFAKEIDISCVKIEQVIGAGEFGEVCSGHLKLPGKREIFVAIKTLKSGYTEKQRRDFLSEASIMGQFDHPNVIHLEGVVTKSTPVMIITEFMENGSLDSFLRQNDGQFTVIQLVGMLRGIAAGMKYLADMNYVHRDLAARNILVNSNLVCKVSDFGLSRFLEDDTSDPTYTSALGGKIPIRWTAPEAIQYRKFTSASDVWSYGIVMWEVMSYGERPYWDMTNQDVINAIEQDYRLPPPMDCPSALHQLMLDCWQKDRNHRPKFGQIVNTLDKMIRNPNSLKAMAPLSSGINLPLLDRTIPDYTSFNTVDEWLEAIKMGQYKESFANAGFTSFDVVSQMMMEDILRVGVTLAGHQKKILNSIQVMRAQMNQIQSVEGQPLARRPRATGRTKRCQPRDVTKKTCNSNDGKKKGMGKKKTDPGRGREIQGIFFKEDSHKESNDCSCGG

[1] = biological target: Tyrosine-protein kinase FRK (Homo sapiens, UniProt P42685)
Sequence of Tyrosine-protein kinase FRK (P42685 whole entry): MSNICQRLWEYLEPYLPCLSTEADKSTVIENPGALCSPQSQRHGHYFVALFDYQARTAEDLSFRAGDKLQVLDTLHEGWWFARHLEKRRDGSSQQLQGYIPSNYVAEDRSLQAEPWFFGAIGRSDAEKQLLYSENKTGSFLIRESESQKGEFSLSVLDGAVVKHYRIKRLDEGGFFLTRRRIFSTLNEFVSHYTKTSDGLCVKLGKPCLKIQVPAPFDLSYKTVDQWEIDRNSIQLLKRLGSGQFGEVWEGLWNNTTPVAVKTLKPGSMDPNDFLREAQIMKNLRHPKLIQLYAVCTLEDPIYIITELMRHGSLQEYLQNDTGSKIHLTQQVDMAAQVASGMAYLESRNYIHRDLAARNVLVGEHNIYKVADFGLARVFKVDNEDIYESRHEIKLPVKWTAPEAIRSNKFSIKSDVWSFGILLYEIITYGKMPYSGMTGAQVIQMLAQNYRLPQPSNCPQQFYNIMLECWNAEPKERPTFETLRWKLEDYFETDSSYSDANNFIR

[2] = biological target: T2, Serine/threonine-protein kinase LATS1 (Homo sapiens, UniProt O95835)
T2 sequence (O95835 whole entry): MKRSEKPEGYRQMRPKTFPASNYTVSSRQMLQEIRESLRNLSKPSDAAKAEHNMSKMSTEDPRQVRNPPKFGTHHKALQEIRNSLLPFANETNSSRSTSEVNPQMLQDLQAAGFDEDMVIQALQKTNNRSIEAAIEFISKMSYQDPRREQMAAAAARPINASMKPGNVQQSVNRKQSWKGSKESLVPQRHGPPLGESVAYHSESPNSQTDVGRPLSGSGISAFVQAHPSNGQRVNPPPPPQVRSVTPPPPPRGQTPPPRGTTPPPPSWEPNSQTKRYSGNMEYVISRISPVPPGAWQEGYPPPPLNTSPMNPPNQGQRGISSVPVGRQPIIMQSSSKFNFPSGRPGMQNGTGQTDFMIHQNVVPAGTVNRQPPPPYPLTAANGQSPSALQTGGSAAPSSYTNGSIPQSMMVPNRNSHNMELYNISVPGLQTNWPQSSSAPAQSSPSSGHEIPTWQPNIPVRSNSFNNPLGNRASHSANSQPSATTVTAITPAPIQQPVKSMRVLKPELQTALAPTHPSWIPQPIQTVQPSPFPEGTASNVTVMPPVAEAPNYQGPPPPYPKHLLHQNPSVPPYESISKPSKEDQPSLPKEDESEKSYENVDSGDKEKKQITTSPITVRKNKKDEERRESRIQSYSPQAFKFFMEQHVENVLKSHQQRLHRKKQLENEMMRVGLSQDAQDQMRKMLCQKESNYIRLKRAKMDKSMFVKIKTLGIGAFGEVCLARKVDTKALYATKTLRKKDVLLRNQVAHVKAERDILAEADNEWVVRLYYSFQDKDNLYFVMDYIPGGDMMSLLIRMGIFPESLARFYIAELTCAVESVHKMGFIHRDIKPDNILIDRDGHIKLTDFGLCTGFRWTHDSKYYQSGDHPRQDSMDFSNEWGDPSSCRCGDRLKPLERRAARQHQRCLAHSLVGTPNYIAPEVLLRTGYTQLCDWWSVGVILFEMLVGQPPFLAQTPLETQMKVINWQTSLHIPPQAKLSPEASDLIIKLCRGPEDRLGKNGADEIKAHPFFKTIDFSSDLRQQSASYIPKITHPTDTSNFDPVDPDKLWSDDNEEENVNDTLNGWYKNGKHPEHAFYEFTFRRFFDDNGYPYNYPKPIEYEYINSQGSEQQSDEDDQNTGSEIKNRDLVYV

[3] = biological target: Protein kinase C alpha type (Homo sapiens, UniProt P17252)
[4] = biological target: GTP-binding nuclear protein Ran (Homo sapiens, UniProt P62826)
[5] = biological target: T3, Signal recognition particle receptor subunit alpha (Homo sapiens, UniProt P08240)
T3 sequence (P08240 whole entry): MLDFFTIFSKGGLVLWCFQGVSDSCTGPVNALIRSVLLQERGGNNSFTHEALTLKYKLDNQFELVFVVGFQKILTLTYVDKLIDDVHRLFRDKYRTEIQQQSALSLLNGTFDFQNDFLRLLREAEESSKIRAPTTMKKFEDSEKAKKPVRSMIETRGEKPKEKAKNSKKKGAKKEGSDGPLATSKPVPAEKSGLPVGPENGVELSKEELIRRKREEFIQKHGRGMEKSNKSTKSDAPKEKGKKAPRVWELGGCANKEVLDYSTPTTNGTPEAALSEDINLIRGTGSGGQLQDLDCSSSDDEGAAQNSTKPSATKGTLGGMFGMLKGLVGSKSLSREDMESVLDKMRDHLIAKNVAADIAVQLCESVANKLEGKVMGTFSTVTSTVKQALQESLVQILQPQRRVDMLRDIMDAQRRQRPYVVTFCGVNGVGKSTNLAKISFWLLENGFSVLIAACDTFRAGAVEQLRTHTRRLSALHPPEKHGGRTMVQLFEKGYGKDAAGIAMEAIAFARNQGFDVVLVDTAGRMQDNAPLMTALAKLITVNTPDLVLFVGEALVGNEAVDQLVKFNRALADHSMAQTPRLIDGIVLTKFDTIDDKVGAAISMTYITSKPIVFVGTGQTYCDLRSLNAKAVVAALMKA

[6] = biological target: Mitogen-activated protein kinase kinase kinase 20 (Homo sapiens, UniProt Q9NYL2)
Sequence of Mitogen-activated protein kinase kinase kinase 20 (Q9NYL2 whole entry): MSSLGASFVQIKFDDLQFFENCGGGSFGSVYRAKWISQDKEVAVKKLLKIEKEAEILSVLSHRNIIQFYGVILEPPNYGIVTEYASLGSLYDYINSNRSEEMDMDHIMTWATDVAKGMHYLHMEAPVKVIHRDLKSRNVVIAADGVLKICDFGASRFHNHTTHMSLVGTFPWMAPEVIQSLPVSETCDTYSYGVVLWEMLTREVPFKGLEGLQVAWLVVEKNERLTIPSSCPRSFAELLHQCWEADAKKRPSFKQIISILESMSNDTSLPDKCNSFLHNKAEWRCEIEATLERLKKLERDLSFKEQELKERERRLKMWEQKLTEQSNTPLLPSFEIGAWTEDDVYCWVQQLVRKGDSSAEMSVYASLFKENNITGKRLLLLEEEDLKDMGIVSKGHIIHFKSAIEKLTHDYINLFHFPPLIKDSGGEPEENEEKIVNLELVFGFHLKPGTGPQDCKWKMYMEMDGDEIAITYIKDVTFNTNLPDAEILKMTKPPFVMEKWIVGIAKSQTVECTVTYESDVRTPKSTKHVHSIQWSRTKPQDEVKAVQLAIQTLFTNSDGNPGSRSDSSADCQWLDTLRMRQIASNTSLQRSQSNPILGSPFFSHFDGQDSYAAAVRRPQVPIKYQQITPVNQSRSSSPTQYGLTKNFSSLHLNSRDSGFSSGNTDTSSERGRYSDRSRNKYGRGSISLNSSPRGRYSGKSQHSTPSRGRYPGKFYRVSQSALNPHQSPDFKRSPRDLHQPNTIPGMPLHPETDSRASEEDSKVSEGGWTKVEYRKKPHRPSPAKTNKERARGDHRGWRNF

Sequence of Activin receptor type-2B (Q13705 whole entry): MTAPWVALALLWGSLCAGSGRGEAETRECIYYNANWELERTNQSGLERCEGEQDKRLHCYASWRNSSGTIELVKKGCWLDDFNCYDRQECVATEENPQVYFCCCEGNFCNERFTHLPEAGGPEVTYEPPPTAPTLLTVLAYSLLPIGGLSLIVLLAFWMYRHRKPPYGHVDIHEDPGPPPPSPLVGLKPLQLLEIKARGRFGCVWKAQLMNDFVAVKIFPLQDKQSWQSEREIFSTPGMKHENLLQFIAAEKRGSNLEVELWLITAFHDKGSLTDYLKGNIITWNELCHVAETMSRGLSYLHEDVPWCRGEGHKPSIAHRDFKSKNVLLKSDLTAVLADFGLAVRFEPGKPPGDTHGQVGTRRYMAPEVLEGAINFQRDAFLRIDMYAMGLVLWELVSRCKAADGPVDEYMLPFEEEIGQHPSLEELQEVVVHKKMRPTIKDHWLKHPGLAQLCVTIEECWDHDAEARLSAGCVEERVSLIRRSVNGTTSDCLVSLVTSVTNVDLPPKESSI

Kd (Activin receptor type-2B) | Kd (Ephrin type-B receptor 2) | Kd [1] | Kd [2] | Kd [3] | Kd [4] | Kd [5] | Kd [6] | Structure (SMILES)
> 30 µM (inactive) | > 30 µM (inactive) | > 30 µM (inactive) | > 30 µM (inactive) | > 30 µM (inactive) | > 30 µM (inactive) | > 30 µM (inactive) | 7.73 µM (active) | O=C(Nc1ccc(OC(F)(F)F)cc1)c1sccc1NCc1ccnc2ccccc12 [OSI-930]
> 30 µM (inactive) | > 30 µM (inactive) | > 30 µM (inactive) | > 30 µM (inactive) | > 30 µM (inactive) | > 30 µM (inactive) | > 30 µM (inactive) | > 30 µM (inactive) | Cc1cc(Nc2nc(N[C@@H](C)c3ncc(F)cn3)ncc2Cl)n[nH]1 [AZD-1480]
 | > 30 µM (inactive) | > 30 µM (inactive) | > 30 µM (inactive) | > 30 µM (inactive) | > 30 µM (inactive) | > 30 µM (inactive) | > 30 µM (inactive) | NC(=O)c1ccc(N(C(N)=O)c2c(F)cccc2F)nc1-c1ccc(F)cc1F [VX-702]

Further lines, the molecule ahead of its results:

Structure (SMILES) | Kd (Activin receptor type-2B) | Kd (Ephrin type-B receptor 2) | Kd [1] | Kd [2] | Kd [3] | Kd [4] | Kd [5] | Kd [6]
O=C(NC[C@H](O)CO)c1ccncc1Nc1ccc(I)cc1F [PIMASERTIB] | > 30 µM (inactive) | > 30 µM (inactive) | > 30 µM (inactive) | > 30 µM (inactive) | > 30 µM (inactive) | > 30 µM (inactive) | > 30 µM (inactive) | > 30 µM (inactive)
COc1cc(Nc2ncc(F)c(Nc3ccc4c(n3)N(COP(=O)(O)O)C(=O)C(C)(C)O4)n2)cc(OC)c1OC [FOSTAMATINIB] | > 30 µM (inactive) | > 30 µM (inactive) | > 30 µM (inactive) | 2.16 µM (active) | > 30 µM (inactive) | > 30 µM (inactive) | > 30 µM (inactive) | > 30 µM (inactive)
CNC(=O)c1cc(COc2nnc(Nc3ccc(Cl)cc3)c3ccoc23)ccn1 [TELATINIB] | > 30 µM (inactive) | > 30 µM (inactive) | > 30 µM (inactive) | > 30 µM (inactive) | > 30 µM (inactive) | > 30 µM (inactive) | > 30 µM (inactive) | 0.477 µM
FC(F)(F)c1ccc(CNc2ccc(Cc3c[nH]c4ncc(Cl)cc34)cn2)cn1 [PEXIDARTINIB] | > 30 µM (inactive) | > 30 µM (inactive) | > 30 µM (inactive) | > 30 µM (inactive) | > 30 µM (inactive) | > 30 µM (inactive) | > 30 µM (inactive) | > 30 µM (inactive)
S=C(NCc1ccc2c(c1)OCO2)N1CCN(c2ncnc3c2oc2ccccc23)CC1 [AMUVATINIB] | > 30 µM (inactive) | > 30 µM (inactive) | > 30 µM (inactive) | > 30 µM (inactive) | > 30 µM (inactive) | > 30 µM (inactive) | > 30 µM (inactive) | > 30 µM (inactive)
C=CC(=O)Nc1cccc(Nc2nc(Nc3ccc(N4CCN(C(C)=O)CC4)cc3OC)ncc2C(F)(F)F)c1 [ROCILETINIB] | > 30 µM (inactive) | > 30 µM (inactive) | > 30 µM (inactive) | > 30 µM (inactive) | > 30 µM (inactive) | > 30 µM (inactive) | > 30 µM (inactive) | > 30 µM (inactive)
O=S(=O)(c1cccc2c(O)nccc12)N1CCCNCC1 [HYDROXYFASUDIL] | > 30 µM (inactive) | > 30 µM (inactive) | > 30 µM (inactive) | > 30 µM (inactive) |  | > 30 µM (inactive) | > 30 µM (inactive) | > 30 µM (inactive)
C[C@@H]1COC(Nc2ccc3ncnc(Nc4ccc(OCc5nccs5)c(Cl)c4)c3c2)=N1 [VARLITINIB] | > 30 µM (inactive) | > 30 µM (inactive) | > 30 µM (inactive) | > 30 µM (inactive) | > 30 µM (inactive) | > 30 µM (inactive) | > 30 µM (inactive) | > 30 µM (inactive)
CCN1CCN(Cc2ccc(Nc3ncc(F)c(-c4cc(F)c5nc(C)n(C(C)C)c5c4)n3)nc2)CC1 [ABEMACICLIB] | > 30 µM (inactive) | > 30 µM (inactive) | > 30 µM (inactive) | > 30 µM (inactive) | 0.53 µM (active) | > 30 µM (inactive) | > 30 µM (inactive) | > 30 µM (inactive)
O=c1[nH]c([C@@H]2CCCN2)nc2c1oc1ccc(Cl)cc12 | > 30 µM (inactive) | > 30 µM (inactive) | > 30 µM (inactive) | > 30 µM (inactive) | > 30 µM (inactive) | > 30 µM (inactive) | > 30 µM (inactive) | > 30 µM (inactive)
CN(c1ncccc1CNc1nc(Nc2ccc3c(c2)CC(=O)N3)ncc1C(F)(F)F)S(C)(=O)=O [PF-00562271] | > 30 µM (inactive) | > 30 µM (inactive) |  | > 30 µM (inactive) | > 30 µM (inactive) | > 30 µM (inactive) | > 30 µM (inactive) | 
CCc1nc(C(N)=O)c(Nc2ccc(N3CCC(N4CCN(C)CC4)CC3)c(OC)c2)nc1NC1CCOCC1 [GILTERITINIB] | > 30 µM (inactive) | > 30 µM (inactive) | > 30 µM (inactive) | 0.221 µM (active) |  | 0.759 µM | > 30 µM (inactive) | > 30 µM (inactive)
O[C@H]1CC[C@H](Nc2ncc3nc(Nc4c(F)cc(F)cc4F)n([C@H]4CCOC4)c3n2)CC1 [TANZISERTIB] | > 30 µM (inactive) | > 30 µM (inactive) | > 30 µM (inactive) | > 30 µM (inactive) | > 30 µM (inactive) | > 30 µM (inactive) |  | > 30 µM (inactive)
